Assays:
Assay type in all cases: cell-based, human
[1] = test system: Daudi (CD20 positive Non-Hodgkin's lymphoma cells); test: Cell viability, Cell Titer Glo luminescent assay (Examples 12, 16, 19, 20, 22); conditions: CHO expressed IgG2 ADCs, Example 22
Procedure: (§1) Naked antibody anti-CD20-IgG1-Phor18 were chemically conjugated (MS4A and AT80), Mw app.158,000 g/mol at a concentrations of 0.34 mg/ml (MS4A-Phor18) and 0.76 mg/ml (AT-80-Phor18). Cell lines were obtained at the American Type Cell Collection (Mannassas, Va.). Human Non-Hodgkin's lymphoma cells Daudi (CD20 positive, passage number p2), Raji (CD20 positive p 2) and human leukemia cell line U937 (CD20 negative, p 10) were seeded at a density of 3,000 cells per well in opaque plates in heat inactivated full medium. After 24 hours cells were replenished with fresh media (75 μl) and incubated with 25 μl of a 4× serial dilution of MS4A1-Phor18 and AT80-Phor18 of 0.001, 0.01, 0.1, 1, 10, 100 and 500 nM (N=6). Cells incubated for 2-5 hours were assayed for membrane integrity using a luminometric assay kit (Promega, Madison, Wis., Cytotox Glo G9292 lot #301329). Cell viability was determined was determined after 24, and 48 hours using a luminescent assay kit (Promega, Madison, Wis., Cell Titer Glo, G 7572, lot 30068102).
(§2) The concentration of each naked antibody fragment and ADC was determined according to Bradford. Naked antibody scFv Mw 27,088 g/mol at a concentration of 0.3 mg/ml, minibody Mw 78,988 g/mol, 0.231 mg/ml; Phor 18 conjugated antibodies were scFv-Phor18 (Mw 29,349 g/mol, 0.9 mg/ml) and minibody-Phor18 (Mw 93,515, 0.48 mg/ml). Cell lines were obtained at the American Type Cell Collection (Mannassas, Va.). Human Non-Hodgkin's lymphoma cells Daudi (CD20 positive, passage number p8) and human leukemia cell line U937 (CD20 negative, p 16) were seeded at a density of 2,000 cells per well in opaque plates in heat inactivated full medium. After 24 hours cells were replenished with fresh media (75 μl) and incubated with 25 μl of a 4× serial dilution of scFv-Phor18 and minibody-Phor18 ADC and naked antibody fragment (scFv and minibody) prepared in cell culture media were added at concentrations of 0.0001, 0.001, 0.01, 0.1, 1, 10, 100, 200, and 500 nM (N=6). Cells incubated for 4 hours were assayed for membrane integrity using a luminometric assay kit (Promega, Madison, Wis., Cytotox Glo G9292 lot #301329). Cell viability was determined was determined after 24, 48 and 72 hours using a luminescent assay kit (Promega, Madison, Wis., Cell Titer Glo, G 7572, lot 30062102).
(§3) Controls for 100% cell viability (culture media) and 100% cell death (0.1% Triton X 100) incubated under the same conditions.
(§4) Data were processed and analyzed to obtain IC50 values using Graph Pad Prizm version 5.00 for Windows, GraphPad Software, San Diego Calif. USA, www-graphpad-com (Graph Pad Prizm, Inc). Statistical analysis for significance was determined by a two-tailed Student's T-test. Each test was conducted using 2 plates with 2-3 wells each to achieve an N of 4-6 data points per time point.
(§5) The concentration of each naked antibody fragment and ADC was determined spectrophotometrically (OD280). Naked antibody scFv-Fc Mw 52,562 g/mol at a concentration of 1.1 mg/ml, Phor 18 conjugated antibodies were Phor18-VL-scFvFc (Mw 54,685 g/mol, 1.0 mg/ml), scFv-Fc-CH3-Phor18 (Mw 54,685 g/mol, 0.8 mg/ml). Human Non-Hodgkin's lymphoma cells Daudi (CD20 positive, passage number p7) and human leukemia cell line U937 (CD20 negative, p 6) were seeded at a density of 2,000 cells per well in opaque plates in heat inactivated full medium using cell dissociation buffer. After 24 hours cells were replenished with fresh media (75 μl) and incubated and incubated with 25 μl of a 4× serial dilution of each ADC and naked antibody prepared in cell culture media were added at concentrations of 0.01, 0.1, 1, 10, 100, 200 and 500 nM for scFvFc, Phor18-VL-scFvFc and scFv-Fc-CH3-Phor18.
(§6) Cells incubated for 4 hours were assayed for membrane integrity using a luminometric assay kit (Promega, Madison, Wis., Cytotox Glo G9292 lot #26229601). Cell viability was determined was determined after 24 hours using a luminescent assay kit (Promega, Madison, Wis., Cell Titer Glo, G 7572, lot 30731602). […]

[2] = test system: U937 (CD20 negative leukemia cell line); test: as above; conditions: CHO expressed IgG2 ADCs, Example 22
Procedure: as §1, §2, §5
Cells incubated for 4 hours were assayed for membrane integrity using a luminometric assay kit (Promega, Madison, Wis., Cytotox Glo G9292 lot #26229601). Cell viability was determined was determined after 24 hours using a luminescent assay kit (Promega, Madison, Wis., Cell Titer Glo, G 7572, lot 30731602). Controls for 100% cell viability (culture media) and 100% cell death (0.1% Triton X 100) incubated under the same conditions.
Human Non-Hodgkin's lymphoma cells Daudi (CD20 positive, passage number p3) and human leukemia cell line U937 (CD20 negative, p 12) were seeded at a density of 2,000 cells per well in opaque plates in heat inactivated full medium using cell dissociation buffer. […]

[3] = test system: Daudi (CD20 positive Non-Hodgkin's lymphoma cells); test: Membrane integrity, Cytotox Glo luminometric assay (Examples 12, 16, 19, 20, 22); conditions: 4 h, CHO expressed IgG2 ADCs, Example 22
Procedure: as §1, §2, §3, §4, §5, §6

[4] = test system: U937 (CD20 negative leukemia cell line); test: Membrane integrity, Cytotox Glo luminometric assay (Examples 19, 20, 22); conditions: CHO expressed IgG2 ADCs, Example 22
Procedure: The concentration of each naked antibody fragment and ADC was determined spectrophotometrically (OD280). Naked antibody scFv-Fc Mw 52,562 g/mol at a concentration of 1.1 mg/ml, Phor 18 conjugated antibodies were Phor18-VL-scFvFc (Mw 54,685 g/mol, 1.0 mg/ml), scFv-Fc-CH3-Phor18 (Mw 54,685 g/mol, 0.8 mg/ml). Human Non-Hodgkin's lymphoma cells Daudi (CD20 positive, passage number p7) and human leukemia cell line U937 (CD20 negative, p 6) were seeded at a density of 2,000 cells per well in opaque plates in heat inactivated full medium using cell dissociation buffer. […]
as §6
Cells incubated for 4 hours were assayed for membrane integrity using a luminometric assay kit (Promega, Madison, Wis., Cytotox Glo G9292 lot #26229601). Cell viability was determined was determined after 24, and 48 hours using a luminescent assay kit (Promega, Madison, Wis., Cell Titer Glo, G 7572, lot 31386501). […]

IgG2: naked anti-CD20 IgG2 with Rituxan CDRs, CHO cells [reference compound]
Not toxic: IC50, Daudi 24 h ([1]; 24 h) | IC50, Daudi 48 h ([1]; 48 h) | IC50, U937 24 h ([2]; U937, 24 h) | IC50, U937 48 h ([2]; U937, 48 h) | IC50, Daudi 4 h (Membrane integrity) [3] | IC50, U937 4 h (Membrane integrity) [4]

From patent US20190367558A1, “ANTIBODY/DRUG CONJUGATES AND METHODS OF USE” (ESPERANCE PHARMACEUTICALS, INC., priority 2012, published 2019)
